According to patent US20140329863A1 (priority 2011, published 2014):
Where two headings read alike, the source gives them in different places.

Assays:
PrP^C in T98G cells = assay type: cell-based, human; details: read-out: EC50 (μM) ELISA potency, PrP^C in T98G cells
[1] = Hepatic microsomal stability, mouse; details: mouse liver microsomes; for Hepatic Extraction Ratio Mouse: predicted hepatic extraction; for half-life at 1 μM: mouse, pH 7.4
[2] = Hepatic microsomal stability, human; details: human liver microsomes; for Hepatic Extraction Ratio Human: predicted hepatic extraction; for half-life at 1 μM: human, pH 7.4
[3] = test system: PrP^Sc in dividing ScN2a-cl3 cells; assay type: cell-based, mouse; parameters: Dividing ELISA pEC50 (μM) 1st Expt. / Dividing ELISA pEC50 (μM) 2nd Expt. / Dividing ELISA pEC50 (μM) 3rd Expt. / Dividing ELISA pEC50 (μM) Mean: unit not given here; details: for Inhibition of Baseline PrP^5c (%) Dividing Cells ELISA: SPC assay
[4] = test system: PrP^Sc in nondividing ScN2a-cl3 cells; assay type: cell-based, mouse; details: for EC50: read-out: Non-Dividing ELISA EC50 (μM) Mean (n = 3), ScN2a-c13 non-dividing cells, mean n = 3; for Inhibition of Baseline PrP^5c (%) Non-dividing Cells ELISA: SPC assay, nondividing cells
N2a-cl3 cells [5] = assay: cells; details: Mus musculus, N2a-cl3, read-out: Dividing Calcein EC50 (μM) Mean (n = 3)
[6] = test system: PrP^Sc in ScN2a-cl3 cells; assay type: cell-based, mouse; details: Western immunoblots
N2a-cl3 cells [7] = test system: N2a-cl3 cells
[8] = ScN2a-cl3 dividing cells, 1st determination
[9] = ScN2a-cl3 dividing cells, 2nd determination
[10] = ScN2a-cl3 dividing cells, 3rd determination
[11] = ScN2a-cl3 dividing cells, mean of three determinations
[12] = read-out: Dividing ELISA EC50 (μM) 1st Expt., ScN2a-cl3 dividing cells, 1st determination
[13] = read-out: Dividing ELISA EC50 (μM) 2nd Expt., ScN2a-cl3 dividing cells, 2nd determination
[14] = read-out: Dividing ELISA EC50 (μM) 3rd Expt., ScN2a-cl3 dividing cells, 3rd determination
[15] = read-out: Dividing ELISA EC50 (μM) Mean, ScN2a-cl3 dividing cells, mean of three determinations

Structure (SMILES): CN(C)c1ccc2c(c1)OC(N)=C(C#N)C2c1cccc(F)c1 (centres unmarked) [IND17990]
- EC50 (PrP^C in T98G cells): 0.031 µM

Structure (SMILES): Cc1cc(C)c(S(=O)(=O)NCc2ccncc2)c(C)c1 [IND18762]
- EC50 (PrP^C in T98G cells): 4.13 µM

Structure (SMILES): COc1cccc(N2CCN(C(=O)c3cc(C)ccc3OC)CC2)c1 [IND126339]
- EC50 (PrP^C in T98G cells): 0.248 µM
- Hepatic Extraction Ratio Mouse [1]: 0.95
- half-life at 1 μM [1]: 3.2 min
- Hepatic Extraction Ratio Human [2]: 0.87
- half-life at 1 μM [2]: 10.3 min

Structure (SMILES): COc1cc(C(=O)c2cc(Cl)ccc2N)cc(OC)c1OC [IND1323]
- EC50 (PrP^C in T98G cells): 0.085 µM

Structure (SMILES): Cc1nc2sccn2c1-c1csc(Nc2ccc(N(C)C)nc2)n1 [IND126306]
- EC50 (PrP^C in T98G cells): 0.217 µM

Structure (SMILES): Cc1ccc(Nc2nc3c(s2)Cc2ccccc2-3)nc1 [compound 38, (8H-Indeno[1,2-d]thiazol-2-yl)-(5-methylpyridin-2-yl)-amine]
- Dividing ELISA pEC50 (μM) 1st Expt. [3, 8]: 5.70
- Dividing ELISA pEC50 (μM) 2nd Expt. [3, 9]: 5.52
- Dividing ELISA pEC50 (μM) 3rd Expt. [3, 10]: 5.63
- Dividing ELISA pEC50 (μM) Mean [3, 11]: 5.62
- EC50 [3, 12]: 1.99 µM
- EC50 [3, 13]: 2.99 µM
- EC50 [3, 14]: 2.34 µM
- EC50 [3, 15]: 2.44 µM
- EC50 [4]: > 32 µM
- EC50 (N2a-cl3 cells [5]): > 32 µM

Structure (SMILES): CCOC(=O)c1[nH]c(C)c(C(=O)c2ccc(C)cc2)c1C [IND5672]
- EC50 (PrP^C in T98G cells): 0.593 µM

Structure (SMILES): c1ccc(-c2cc(-c3csc(Nc4cc5ccccc5cn4)n3)on2)cc1 [compound 35, Isoquinolin-3-yl-[4-(3-phenylisoxazol-5-yl)-thiazol-2-yl]-amine]
- Dividing ELISA pEC50 (μM) 1st Expt. [3, 8]: 5.93
- Dividing ELISA pEC50 (μM) 2nd Expt. [3, 9]: 6.24
- Dividing ELISA pEC50 (μM) 3rd Expt. [3, 10]: 6.18
- Dividing ELISA pEC50 (μM) Mean [3, 11]: 6.12
- EC50 [3, 12]: 1.16 µM
- EC50 [3, 13]: 0.573 µM
- EC50 [3, 14]: 0.663 µM
- EC50 [3, 15]: 0.799 µM
- EC50 [4]: > 32 µM
- EC50 (N2a-cl3 cells [5]): > 32 µM

Structure (SMILES): COc1ccc(-c2csc(Nc3ccc(C)cn3)n2)cc1OC [compound 14, [4-(3,4-dimethoxyphenyl)-thiazol-2-yl]-(5-methylpyridin-2-yl)-amine]
- EC50 [3, 12]: 0.974 µM
- EC50 [3, 13]: 0.577 µM
- EC50 [3, 14]: 0.815 µM
- EC50 [3, 15]: 0.789 µM
- EC50 [4]: > 32 µM
- EC50 (N2a-cl3 cells [5]): > 32 µM

Structure (SMILES): COc1ccc(S(=O)(=O)N2CCOc3ccccc32)cc1 [IND116071]
- EC50 (PrP^C in T98G cells): 1.71 µM
- Hepatic Extraction Ratio Mouse [1]: 0.98
- half-life at 1 μM [1]: 1.53 min
- Hepatic Extraction Ratio Human [2]: 0.94
- half-life at 1 μM [2]: 4.53 min

Structure (SMILES): COC(=O)c1[nH]c2c(c1C)C(=O)CC(c1cccs1)C2 (centres unmarked) [IND73602]
- EC50 (PrP^C in T98G cells): 0.521 µM

Structure (SMILES): CCc1nnc(NC(=O)c2ccoc2COc2ccccc2)s1 [IND85692]
- EC50 (PrP^C in T98G cells): 2.28 µM

Structure (SMILES): CCOC(=O)c1[nH]c2c(c1C)C(=O)CC(c1ccccc1Cl)C2 (centres unmarked) [IND126429]
- EC50 (PrP^C in T98G cells): 0.497 µM

Structure (SMILES): Cc1nc2ncccn2c1-c1csc(Nc2ccc(Cl)cc2)n1 [IND115948]
- EC50 (PrP^C in T98G cells): 1.85 µM

Structure (SMILES): CCOc1ccccc1C1C(C#N)=C(N)Oc2cc(N(C)C)ccc21 (centres unmarked) [IND8541]
- EC50 (PrP^C in T98G cells): 0.155 µM
- Hepatic Extraction Ratio Mouse [1]: 0.97
- half-life at 1 μM [1]: 1.71 min
- Hepatic Extraction Ratio Human [2]: 0.77
- half-life at 1 μM [2]: 20.3 min

Structure (SMILES): CCOC(=O)c1[nH]c2c(c1C)C(=O)CC(c1ccccc1)C2 (centres unmarked) [IND126432]
- EC50 (PrP^C in T98G cells): 0.144 µM

Structure (SMILES): OCCNCc1cc(Br)ccc1OCc1ccc(Cl)cc1Cl [IND-0033452]
- EC50 ([3]; dividing ScN2a-cl3 cells, read-out: EC50 (nM): ELISA): 2.85 µM
- EC50 ([3]; read-out: Potency (nM) ELISA (EC50), PrP^Sc ELISA, dividing ScN2a-cl3 cells): 2.85 µM
- EC50 ([6]; ScN2a-cl3 cells, read-out: EC50 (nM): Western): 1990 nM
- EC50 ([6]; read-out: Potency (nM) Western (EC50), dividing ScN2a-cl3 cells): 1990 nM
- Calcein (N2a-cl3 cells [7]): MW: 405.1 EC50 (nM): ELISA: 2850 Calcein: 27% Western: 1993
- Calcein (value printed in %) (N2a-cl3 cells [7]; mouse): 27%

Structure (SMILES): COc1ccccc1C(=O)N1CCN(c2ccccc2OC)CC1 [IND116050]
- EC50 (PrP^C in T98G cells): 0.887 µM

Structure (SMILES): CC1=CC(C)(C)N(S(=O)(=O)c2ccc(C)cc2)c2cc(C)ccc21 [IND5418]
- EC50 (PrP^C in T98G cells): 0.649 µM

Structure (SMILES): CCN1CCN(c2ccc(Nc3ccnc4cc5ccccc5cc34)cc2)CC1 [IND-2118]
- Inhibition of Baseline PrP^5c (%) Dividing Cells ELISA [3]: 76%
- Inhibition of Baseline PrP^5c (%) Non-dividing Cells ELISA [4]: 51%
- Dividing Cells V (cell viability percentages) (N2a-cl3 cells [7]): 25%
- Non-dividing Cells V (cell viability percentages) (N2a-cl3 cells [7]): 24%

Structure (SMILES): CN(C)c1ccc2c(c1)OC(N)=C(C#N)C2c1cccs1 (centres unmarked) [IND23846]
- EC50 (PrP^C in T98G cells): 0.21 µM

Structure (SMILES): O=C(Nc1ccc(I)cn1)c1cccc(F)c1 [IND84911]
- EC50 (PrP^C in T98G cells): 0.55 µM

Structure (SMILES): COc1ccc(Cl)cc1C(=O)N1CC(=O)Nc2ccccc21 [IND116063]
- EC50 (PrP^C in T98G cells): 0.647 µM

Structure (SMILES): CC(=O)c1ccc(N2CCN(Cc3ccc(F)cc3F)CC2)cc1 [IND-18785]
- Inhibition of Baseline PrP^5c (%) Dividing Cells ELISA [3]: 85%
- Inhibition of Baseline PrP^5c (%) Non-dividing Cells ELISA [4]: 30%
- Dividing Cells V (cell viability percentages) (N2a-cl3 cells [7]): 30%
- Non-dividing Cells V (cell viability percentages) (N2a-cl3 cells [7]): 20%

Structure (SMILES): Cc1c(C(=O)OC(C)C)[nH]c2c1C(=O)CC(c1cccs1)C2 (centres unmarked) [IND116088]
- EC50 (PrP^C in T98G cells): 0.303 µM
- Hepatic Extraction Ratio Mouse [1]: 0.90
- half-life at 1 μM [1]: 6.88 min
- Hepatic Extraction Ratio Human [2]: 0.74
- half-life at 1 μM [2]: 23.9 min

Structure (SMILES): CCOc1ccc2c(c1)C(C)=CC(C)(C)N2S(=O)(=O)c1ccc(C)cc1 [IND16365]
- EC50 (PrP^C in T98G cells): 0.304 µM

Structure (SMILES): Cc1ccn2c(-c3csc(Nc4ccc(N(C)C)nc4)n3)c(C)nc2c1 [IND9756]
- EC50 (PrP^C in T98G cells): 0.18 µM

Structure (SMILES): CC(=O)c1ccc(N2CCN(Cc3cccc(Cl)c3)CC2)cc1 [IND-7486]
- Inhibition of Baseline PrP^5c (%) Dividing Cells ELISA [3]: 84%
- Inhibition of Baseline PrP^5c (%) Non-dividing Cells ELISA [4]: 31%
- Dividing Cells V (cell viability percentages) (N2a-cl3 cells [7]): 6%
- Non-dividing Cells V (cell viability percentages) (N2a-cl3 cells [7]): 12%

Structure (SMILES): O=C(Nc1ccncc1)C1CCCN1S(=O)(=O)c1ccc2ccccc2c1 (centres unmarked) [IND86287]
- EC50 (PrP^C in T98G cells): 2.65 µM

Structure (SMILES): Cc1ccc2[nH]c3c(c2c1)CCCC3NCC12CC3CC(CC(C3)C1)C2 (centres unmarked) [IND-4176]
- Inhibition of Baseline PrP^5c (%) Dividing Cells ELISA [3]: 98%
- Inhibition of Baseline PrP^5c (%) Non-dividing Cells ELISA [4]: 53%
- Dividing Cells V (cell viability percentages) (N2a-cl3 cells [7]): 9%

Structure (SMILES): N#Cc1c(NC(=O)CCc2cccs2)sc2c1CCCC2 [IND82865]
- EC50 (PrP^C in T98G cells): 0.242 µM

Structure (SMILES): CCN(CC)c1ccc2c(c1)OC(N)=C(C#N)C2c1ccccc1 (centres unmarked) [IND126322]
- EC50 (PrP^C in T98G cells): 0.174 µM

Structure (SMILES): Cc1ccc2c(c1)c1c(n2CC(O)CO)C(=O)CCC1 (centres unmarked) [IND-15474]
- Inhibition of Baseline PrP^5c (%) Dividing Cells ELISA [3]: 14%
- Inhibition of Baseline PrP^5c (%) Non-dividing Cells ELISA [4]: 39%
- Dividing Cells V (cell viability percentages) (N2a-cl3 cells [7]): 11%
- Non-dividing Cells V (cell viability percentages) (N2a-cl3 cells [7]): 9%

Structure (SMILES): COc1ccc(Cl)cc1NS(=O)(=O)c1ccc(N2CCCC2=O)cc1 [IND126331]
- EC50 (PrP^C in T98G cells): 0.684 µM

Structure (SMILES): CCOc1ccc(Nc2nc(-c3c(C)nc4sccn34)cs2)cc1 [IND126328]
- EC50 (PrP^C in T98G cells): 0.065 µM
- Hepatic Extraction Ratio Mouse [1]: 0.86
- half-life at 1 μM [1]: 9.64 min
- Hepatic Extraction Ratio Human [2]: 0.76
- half-life at 1 μM [2]: 21.9 min

Structure (SMILES): COc1ccc(CN2CCN(c3ccc(C(C)=O)cc3)CC2)c(C)c1C [IND-17848]
- Inhibition of Baseline PrP^5c (%) Dividing Cells ELISA [3]: 95%
- Inhibition of Baseline PrP^5c (%) Non-dividing Cells ELISA [4]: 41%
- Dividing Cells V (cell viability percentages) (N2a-cl3 cells [7]): 1%
- Non-dividing Cells V (cell viability percentages) (N2a-cl3 cells [7]): 24%

Structure (SMILES): O=C(Nc1ccc(Cl)cc1)Nc1ccc(C(F)(F)F)cc1Cl [IND-19238]
- Inhibition of Baseline PrP^5c (%) Dividing Cells ELISA [3]: 17%
- Inhibition of Baseline PrP^5c (%) Non-dividing Cells ELISA [4]: 63%
- Non-dividing Cells V (cell viability percentages) (N2a-cl3 cells [7]): 9%
